# Measurements from ChEMBL document CHEMBL1201862, “PubChem BioAssay data set” (2004).
# Calls of active or inactive are those of the source.
# Columns and labels:
# [1] = reduction of Shn3 3'UTR-driven luciferase in osteoblasts – cell-based, Clone20 osteoblasts, firefly luciferase, cherry-picked, dose response (AID 624132); type: functional;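 note: firefly luciferase luminescence from reporter carrying the Shn3 3'UTR in osteoblasts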
# [2] = non-specific 3'UTR reporter inhibition in Clone20-Shn3RL – cell-based, Renilla luciferase, cherry-picked, counter-screen for Shn3 inhibitor project, dose response (AID 624133); type: functional
# [3] = molecular target: T1, Cytochrome P450 1A2 (Homo sapiens, UniProt P05177);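 note: PubChem cytochrome P450 panel assay, CYP1A2 panel member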
# T1 sequence (P05177 whole entry): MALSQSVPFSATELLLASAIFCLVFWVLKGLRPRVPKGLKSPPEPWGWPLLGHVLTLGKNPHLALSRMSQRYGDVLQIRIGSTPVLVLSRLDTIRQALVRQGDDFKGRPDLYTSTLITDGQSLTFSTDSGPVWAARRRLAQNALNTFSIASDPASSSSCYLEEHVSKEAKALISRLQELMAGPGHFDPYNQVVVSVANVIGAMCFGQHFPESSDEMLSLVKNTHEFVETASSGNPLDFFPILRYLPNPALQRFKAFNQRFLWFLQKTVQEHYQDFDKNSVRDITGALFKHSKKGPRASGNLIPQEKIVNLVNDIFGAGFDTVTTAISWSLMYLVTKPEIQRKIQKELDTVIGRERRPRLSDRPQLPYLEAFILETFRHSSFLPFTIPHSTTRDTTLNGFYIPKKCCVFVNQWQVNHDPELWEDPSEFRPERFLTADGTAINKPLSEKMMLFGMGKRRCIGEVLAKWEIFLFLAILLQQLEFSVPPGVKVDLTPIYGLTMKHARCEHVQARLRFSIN
# [4] = system: INS1; assay: INS-1E survival protection against cytokine death – cell-based, luminescence, retest, dose response (AID 449756); type: functional; conditions: Rattus norvegicus;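 note: cell death triggered by IL-1 beta plus TNF-alpha plus IFN-gamma mixture; protective hits raise ATP signal compared with cytokine alone wells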
# [5] = molecular target: T2, Heat shock factor protein 1 (Mus musculus, UniProt P38532); assay: decrease of HSF1-responsive luciferase luminescence – cell-based, NIH3T3, dose retest, confirmation (AID 2382); type: functional;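 note: NIH3T3 fibroblasts with HSF1-driven luciferase reporter stressed by proteasome inhibitor MG132; luminescence from HSF1-driven luciferase expression after 8 hours of MG132 stress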
# T2 sequence (P38532 whole entry): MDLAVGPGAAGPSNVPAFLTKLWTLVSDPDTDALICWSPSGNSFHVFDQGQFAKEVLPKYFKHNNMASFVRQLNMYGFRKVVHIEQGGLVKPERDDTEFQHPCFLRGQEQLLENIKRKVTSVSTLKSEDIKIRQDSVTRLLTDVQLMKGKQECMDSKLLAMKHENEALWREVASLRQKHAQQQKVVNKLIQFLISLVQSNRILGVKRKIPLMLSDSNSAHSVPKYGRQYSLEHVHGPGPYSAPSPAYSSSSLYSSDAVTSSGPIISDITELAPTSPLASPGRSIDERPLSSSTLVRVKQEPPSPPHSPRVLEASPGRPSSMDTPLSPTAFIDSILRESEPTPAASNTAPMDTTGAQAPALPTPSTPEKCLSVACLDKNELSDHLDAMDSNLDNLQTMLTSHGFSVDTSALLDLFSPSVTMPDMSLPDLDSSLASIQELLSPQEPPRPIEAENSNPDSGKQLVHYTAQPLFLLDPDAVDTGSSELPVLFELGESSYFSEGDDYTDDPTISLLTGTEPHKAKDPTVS
# [6] = system: Streptococcus sp. 'group A'; assay: Streptococcus pyogenes SK(-)GAS viability under kanamycin – luminescence, BacTiterGlo, confirmation, counter-screen for streptokinase expression inhibitor project, dose response (AID 1900); type: functional, organism-based
# [7] = molecular target: T3, Streptokinase A (Streptococcus pyogenes serotype M1, UniProt P10520); assay: viability-normalized secreted streptokinase activity reduction – plasminogen activation absorbance, OD405, dose response (AID 1914); type: functional, Streptococcus pyogenes M1 GAS;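 note: secreted streptokinase activity via plasminogen activation per viability signal from cell pellet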
# T3 sequence (P10520 whole entry): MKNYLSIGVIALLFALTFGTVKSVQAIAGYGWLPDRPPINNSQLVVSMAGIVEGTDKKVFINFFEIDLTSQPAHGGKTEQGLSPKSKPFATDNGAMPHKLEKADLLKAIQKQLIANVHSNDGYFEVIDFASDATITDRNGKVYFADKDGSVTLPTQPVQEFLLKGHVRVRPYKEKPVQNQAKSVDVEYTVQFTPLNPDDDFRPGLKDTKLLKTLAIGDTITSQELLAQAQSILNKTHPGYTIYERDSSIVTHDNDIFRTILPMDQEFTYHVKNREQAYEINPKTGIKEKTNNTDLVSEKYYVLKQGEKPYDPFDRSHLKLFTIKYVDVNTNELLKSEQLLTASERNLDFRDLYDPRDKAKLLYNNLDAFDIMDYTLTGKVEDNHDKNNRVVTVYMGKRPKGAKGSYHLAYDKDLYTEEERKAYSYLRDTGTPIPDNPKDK
# [8] = system: Streptococcus; assay: GAS UMAA2166 growth inhibition – luminescence, BacTiterGlo, counter-screen for streptokinase expression inhibitor project, dose response (AID 1915); type: functional, organism-based;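 note: potency for reduction of bacterial viability or growth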
# [9] = Luminescence Cell-Based Dose Retest to Confirm Inhibitors of Cancer Stem Cells. [Related pubchem assays (depositor defined):AID2717, AID2721]; type: functional; conditions: Homo sapiens
# [10] = molecular target: Cytochrome P450 2C9 (Homo sapiens, UniProt P11712)
# Chain of Cytochrome P450 2C9 (P11712 whole entry): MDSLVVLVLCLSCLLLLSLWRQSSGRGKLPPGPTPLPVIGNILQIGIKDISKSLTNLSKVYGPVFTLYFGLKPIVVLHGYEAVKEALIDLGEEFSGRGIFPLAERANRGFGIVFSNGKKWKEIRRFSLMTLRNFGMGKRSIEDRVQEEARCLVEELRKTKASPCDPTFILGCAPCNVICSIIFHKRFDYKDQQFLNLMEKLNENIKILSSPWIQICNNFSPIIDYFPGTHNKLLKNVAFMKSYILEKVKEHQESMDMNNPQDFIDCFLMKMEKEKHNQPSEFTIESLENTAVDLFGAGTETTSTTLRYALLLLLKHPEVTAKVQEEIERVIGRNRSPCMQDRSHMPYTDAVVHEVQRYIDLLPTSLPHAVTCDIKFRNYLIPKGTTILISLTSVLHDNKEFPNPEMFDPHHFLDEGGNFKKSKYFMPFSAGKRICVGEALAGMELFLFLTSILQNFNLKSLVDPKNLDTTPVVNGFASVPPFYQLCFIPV
# [11] = molecular target: Cytochrome P450 2D6 (Homo sapiens, UniProt P10635);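 note: CYP2D6 member of a cytochrome P450 panel assay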
# Chain of Cytochrome P450 2D6 (P10635 whole entry): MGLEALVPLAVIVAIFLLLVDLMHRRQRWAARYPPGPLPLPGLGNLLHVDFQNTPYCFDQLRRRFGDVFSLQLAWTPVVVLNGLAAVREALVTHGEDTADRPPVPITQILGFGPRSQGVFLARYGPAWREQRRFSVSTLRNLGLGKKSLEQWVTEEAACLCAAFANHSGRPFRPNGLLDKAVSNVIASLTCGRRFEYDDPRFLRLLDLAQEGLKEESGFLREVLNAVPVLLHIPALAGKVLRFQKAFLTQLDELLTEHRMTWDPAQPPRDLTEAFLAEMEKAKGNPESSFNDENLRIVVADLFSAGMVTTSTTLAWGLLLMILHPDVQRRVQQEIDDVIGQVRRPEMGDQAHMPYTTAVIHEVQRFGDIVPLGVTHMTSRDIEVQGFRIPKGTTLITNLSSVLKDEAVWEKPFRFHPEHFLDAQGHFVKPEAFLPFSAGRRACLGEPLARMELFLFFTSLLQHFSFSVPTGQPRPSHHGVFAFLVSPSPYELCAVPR
# [12] = molecular target: Cytochrome P450 2C19 (Homo sapiens, UniProt P33261); assay: Cytochrome panel assay with activity outcomes. Panel member name: p450-cyp2c19 Compounds with AC50 equal or less than 10 uM are considered active; type: functional; conditions: read-out: AC50
# Chain of Cytochrome P450 2C19 (P33261 whole entry): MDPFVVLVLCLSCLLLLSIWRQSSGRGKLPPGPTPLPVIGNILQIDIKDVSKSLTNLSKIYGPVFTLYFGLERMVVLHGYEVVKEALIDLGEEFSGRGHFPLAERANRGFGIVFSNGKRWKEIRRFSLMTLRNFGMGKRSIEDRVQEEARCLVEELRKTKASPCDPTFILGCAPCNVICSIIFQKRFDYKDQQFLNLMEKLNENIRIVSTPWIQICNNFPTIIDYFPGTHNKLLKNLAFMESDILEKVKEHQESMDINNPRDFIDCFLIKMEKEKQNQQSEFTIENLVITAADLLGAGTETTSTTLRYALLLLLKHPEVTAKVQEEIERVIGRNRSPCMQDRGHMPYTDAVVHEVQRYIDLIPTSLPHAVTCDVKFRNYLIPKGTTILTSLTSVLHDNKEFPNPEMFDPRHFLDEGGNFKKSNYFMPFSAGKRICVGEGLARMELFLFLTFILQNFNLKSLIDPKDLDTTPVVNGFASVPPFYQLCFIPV
smiles,measurement,setting,value
CC(=O)N1c2ccc(S(=O)(=O)N3CCC(C(=O)N4CCN(c5ccccc5F)CC4)CC3)cc2CC1C (stereo unspecified),AC50,[1],5.41 µM (active)
same,AC50,[2],2.42 µM (active)
COc1ccc(C2=NOC(C(=O)NCCN3CCOCC3)C2)cc1 (stereo unspecified),AC50,[3],31.6 µM (inconclusive)
COc1ccc(N(C)S(=O)(=O)c2cccc(C(=O)Nc3nc(C)c(C(C)=O)s3)c2)cc1,AC50,[4],28.3 µM (active)
CCc1ccccc1N(CC(=O)N1CCCC1)S(C)(=O)=O,EC50,[5],> 195 µM (not active)
NC(=O)C1CCCN(C(=O)c2ccc3oc(Cc4ccc(Cl)cc4)nc3c2)C1 (stereo unspecified),EC50,[5],> 195 µM (not active)
COc1ccc(C)cc1NC(=O)NC1CCCc2ccccc21 (stereo unspecified),EC50,[6],> 150 µM (not active)
same,EC50,[7],> 150 µM (not active)
same,EC50,[8],> 150 µM (not active)
O=C(C(Sc1ccccc1)c1ccccc1)N1CCN(c2ccccc2F)CC1 (stereo unspecified),AC50,[4],> 120 µM (inactive)
Nc1nc2n(c1C(=O)c1ccccc1)CCC2,EC50,[5],78 µM (active)
COc1cccc(/C=C/C(=C2/C(=O)N(c3ccccc3)N=C2C)c2ccc(Br)cc2)c1OC,EC50,[6],> 150 µM (not active)
same,EC50,[7],> 150 µM (not active)
same,EC50,[8],> 150 µM (not active)
same,AC50,[9],> 195 µM (inactive)
Cc1cccc(CCNC(=O)CC2C(=O)NCCN2Cc2ccccc2C)n1 (stereo unspecified),EC50,[6],> 150 µM (not active)
same,EC50,[7],> 150 µM (not active)
same,EC50,[8],> 150 µM (not active)
CCOc1ccc(C(Nc2ccc(C)cc2)P2(=O)OCC(C)(C)CO2)cc1 (stereo unspecified),AC50,[3],39.8 µM (inconclusive)
same,AC50,[10],0.02 µM (inconclusive)
COc1ccccc1C(=O)NC(=S)Nc1ccc(NC(=O)c2ccco2)cc1,EC50,[7],> 150 µM (not active)
same,EC50,[8],114 µM (inconclusive)
O=S(=O)(c1ccccc1)N1CCN=C1SCc1c(F)cccc1Cl,EC50,[7],18.4 µM (active)
same,EC50,[8],> 150 µM (not active)
CCOC(=O)Cc1csc(SCC(=O)c2c(N)n(CC(C)C)c(=O)n(C)c2=O)n1,AC50,[1],2.35 µM (active)
same,AC50,[2],8.62 µM (active)
COc1ccc(C2=NN(S(C)(=O)=O)C(c3cccs3)C2)cc1OC (stereo unspecified),EC50,[5],> 195 µM (not active)
CC(=O)c1ccc(NC(=O)C2CCN(S(=O)(=O)c3cccc4cccnc34)CC2)cc1,EC50,[5],> 195 µM (not active)
CCN(CC)CCOc1ccc2nc(N(C)C)sc2c1,AC50,[11],15.8 µM (inconclusive)
same,AC50,[3],15.8 µM (inconclusive)
O=C(Nc1ccccc1N1CCCC1)c1cccnc1Cl,EC50,[5],> 195 µM (not active)
CCNc1ncc2nc(-c3ccc(F)cc3)c(=O)n(CCOC)c2n1,AC50,[11],3.98 µM (inconclusive)
same,AC50,[3],2 µM (inconclusive)
COc1ccccc1-c1cncnc1NCc1cnc(C)cn1,AC50,[12],31.6 µM (inconclusive)
same,AC50,[11],39.8 µM (inconclusive)
same,AC50,[3],20 µM (inconclusive)
